Reference: patent publication US10450293B2, “Chemokine CXCR4 and CCR5 receptor modulators and uses related thereto” (Emory University, priority 2014, dated 2019)
pEC50, pIC50: −log10 of the molar value.

Assays:
HIV-1 IIIB [1] = assay: HIV-1 MAGI assay, IIIB (CXCR4 / T-tropic); format: cell-based
Description: (§1) Bayesian statistical models were constructed using known CXCR4 and CCR5 active compounds from literature, and these models were used to virtually screen 5 million compounds in the Aldrich Marketplace Select library. The screen yielded 14 compounds of interest that were then tested for their anti-HIV activity for both tropisms in MAGI assay. Two compounds (FIG. 1, compounds 1 and 2) were active against both T and M tropic forms of HIV with IC50 values of ˜20 μM. These initial hits were followed-up by a second round of virtual screening based on similarity and sub-structure searching. Another 24 compounds were purchased from the same database and tested. […] This compound was then subjected to a series of biological evaluations to determine activity profile and confirm mechanism of action.

HIV-1 Ba-L [2] = assay: HIV-1 MAGI assay, Ba-L (CCR5 / M-tropic); format: cell-based
Description: as §1

HIV-1 Ba-L [3] = assay: PBMC anti-HIV-1 assay, Ba-L (CCR5); format: cell-based; conditions: Human immunodeficiency virus 1, BAL
HIV-1 IIIB [4] = assay: PBMC anti-HIV-1 assay, IIIB (CXCR4); format: cell-based; conditions: Human immunodeficiency virus 1, IIIB, read-out: PBMC - HIV-1HIB (CXCR4) IC50
PBMC toxicity = format: cell-based; conditions: read-out: PBMC - Toxicity TC50
CCR5 [5] = molecular target: T1, CCR5 (Homo sapiens, UniProt P51681); assay: HeLa-C14:JRFL CD4-dependent cell-cell fusion assay; format: cell-based
T1 construct: expressed in transfected cells; host or cells: HeLa-C14
Text: Cell-cell fusion assays measure specifically co-receptor mediated inhibition of gp120-induced fusion in the absence of other viral machinery, and these assays were used to explore the CCR5- and CXCR4-specific antiviral activity. A cell-cell fusion assay was constructed to simulate HIV-1 entry in the absence of other viral machinery. The assay measured fusion of effector cells expressing the JRFL envelope (CCR5-tropic/CD4 dependent) with HeLa-C14 target cells (expressing CD4, CCR5, and CXCR4) using a luciferase readout (FIG. 5A).

CCR5 [6] = molecular target: T1, CCR5; assay: 125I-MIP-1β displacement radio-ligand competition assay; format: binding
[7] = tested on: HIV-2 strain that utilized CXCR4 for entry; assay: PBMC HIV-2 inhibition assay; format: cell-based
Text: Compounds 4 inhibited this HIV-2 strain in PBMC cells in support of the CXCR4-based viral entry inhibition mechanism.

VSV-G pseudovirus = assay: microbe, parasite or virus in culture; format: cell-based
[8] = molecular target: HIV-1 reverse transcriptase (Human immunodeficiency virus type 1 group M subtype B, UniProt P03366); assay: biochemical; format: biochemical
wild type virus = assay: organism not typed; format: cell-based; conditions: read-out: Multi-cycle EC50 (WT)
in vitro = format: cell-based; conditions: human
MAGI toxicity = conditions: human, MAGI cells

T1 sequence (P51681 whole entry, the tested form may be a part): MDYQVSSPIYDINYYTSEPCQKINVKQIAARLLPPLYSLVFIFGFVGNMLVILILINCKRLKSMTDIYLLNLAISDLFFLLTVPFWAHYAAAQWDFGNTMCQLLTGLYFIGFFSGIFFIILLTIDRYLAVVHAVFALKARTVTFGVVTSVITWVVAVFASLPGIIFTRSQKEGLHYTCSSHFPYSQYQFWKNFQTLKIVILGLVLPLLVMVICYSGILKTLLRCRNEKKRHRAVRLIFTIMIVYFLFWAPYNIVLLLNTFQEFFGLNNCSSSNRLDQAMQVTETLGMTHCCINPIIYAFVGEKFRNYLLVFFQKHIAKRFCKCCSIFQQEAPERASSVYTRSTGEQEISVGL

## 4-((4-(4-benzyl-5-methyl-1H-pyrazol-3-yl)piperidin-1-yl)methyl)-3-chloropyridine
HIV-1 IIIB [1]; table of synthesized compounds, read-out: X4-IC50
  pIC50: 5.51
HIV-1 Ba-L [2]; table of synthesized compounds, read-out: R5-IC50
  pIC50: 5.38
MAGI
  CC50: 164 µM

## c1ccc(Cc2cn[nH]c2C2CCN(Cc3ccncc3)CC2)cc1 [Compound 4, 4-((4-(4-benzyl-1H-pyrazol-3-yl)piperidin-1-yl)methyl)pyridine]
HIV-1 IIIB [1]; Human immunodeficiency virus 1, IIIB, MAGI, Table 3, read-out: MAGI Assay IC50 CXCR4
  pIC50: 6.10
HIV-1 IIIB [1]; Human immunodeficiency virus 1, IIIB, MAGI, read-out: MAGI - HIV-1HIB (CXCR4) IC50
  pIC50: 6.10
HIV-1 IIIB [1]; Human immunodeficiency virus 1, IIIB, MAGI, table of synthesized compounds, read-out: X4-IC50
  pIC50: 6.11
HIV-1 IIIB [1]; Human immunodeficiency virus 1, IIIB, MAGI, value stated for both tropisms, read-out: IC50 against T tropic HIV in MAGI assay
  pIC50: 5.42 to 6.10
HIV-1 IIIB [1]; IIIB, T-tropic, read-out: HIV-1 MAGI IC50 IIIB
  pIC50: 4.60
HIV-1 Ba-L [2]; Ba-L, M-tropic, read-out: HIV-1 MAGI IC50 Ba-L
  pIC50: 4.77
HIV-1 Ba-L [2]; Human immunodeficiency virus 1, BAL, MAGI, value stated for both tropisms, read-out: IC50 against M tropic HIV in MAGI assay
  pIC50: 5.42 to 6.10
HIV-1 Ba-L [2]; Human immunodeficiency virus 1, BAL, Table 3, read-out: MAGI Assay IC50 CCR5
  pIC50: 5.42
HIV-1 Ba-L [2]; Human immunodeficiency virus 1, BAL, read-out: MAGI - HIV-1Ba-L (CCR5) IC50
  pIC50: 5.42
HIV-1 Ba-L [2]; Human immunodeficiency virus 1, BAL, table of synthesized compounds, read-out: R5-IC50
  pIC50: 5.43
HIV-1 Ba-L [3]
  pIC50: 5.64
HIV-1 IIIB [4]
  pIC50: 5.64
PBMC toxicity
  CC50: > 100 µM
CCR5 [5]
  pIC50: 4.44
CCR5 [5]; luciferase readout, in words
  inhibition of JRFL envelope / HeLa-C14 cell-cell fusion: inhibited fusion
CCR5 [6]; at 100 μM
  125I-MIP-1β Displacement: 38% at 100 μM/
CCR5 [6]; at 1 mM
  125I-MIP-1β Displacement: 88% at 1 mM
CCR5 [6]; in words
  displacement of 125I-MIP1β chemokine ligand from the receptor: displaced
[7]; Human immunodeficiency virus 2, PBMC
  pIC50: 4.51
[7]; in words
  inhibition of HIV-2 strain in PBMC cells: inhibited
VSV-G pseudovirus; Pseudovirus
  pEC50: 5.89
VSV-G pseudovirus; in words
  inhibition of VSV-G pseudovirus: inhibited
[8]; in words
  inhibition of isolated HIV-1 reverse transcriptase: inhibited
[8]; read-out: Isolated HIV-RT Inhibition IC50
  pIC50: 5.05
Wild type virus
  pEC50: 6.05
In vitro
  CC50: > 200 µM
MAGI toxicity; MAGI -Toxicity TC50
  CC50: > 300 µM
MAGI toxicity; TC50, table of synthesized compounds
  CC50: > 100 µM
